One block for each compound: values may come before it.
Key:
[1] = Prodrug conversion in human hepatocytes assessed as oxidation at 20 uM measured after 4 hrs; assay type: ADME, cell-based, Hepatocyte
[2] = Prodrug conversion in Sprague-Dawley rat gut assessed as 2-((4-(Benzo[d]thiazol-5-ylamino)-6-(tert-butylsulfonyl)quinazolin-7-yl)oxy)ethanol formation at 2 mg/kg, po or 0.5 mg/kg, iv measured at 15 to 120 mins post dose; assay type: ADME, organism-based; details: in vivo
[3] = Half life in human blood; assay type: ADME, tissue-based
[4] = Toxicity in Gottingen minipig during 6 week study; design: species or system Sus scrofa; details: pig, in vivo, 1008 h
[5] = AUC in Gottingen minipig assessed as 2-((4-(Benzo[d]thiazol-5-ylamino)-6-(tert-butylsulfonyl)quinazolin-7-yl)oxy)ethanol level at 1 mg/kg, po by LC/MS/MS analysis; assay type: ADME, organism-based, Sus scrofa; details: pig, in vivo
[6] = AUC in Sprague-Dawley rat assessed as 2-((4-(Benzo[d]thiazol-5-ylamino)-6-(tert-butylsulfonyl)quinazolin-7-yl)oxy)ethanol level at 2 mg/kg, po by LC/MS/MS analysis; assay type: ADME, organism-based; details: in vivo
[7] = Drug uptake in Beagle dog systemic circulation at 2 mg/kg, po or 0.9 mg/kg, iv by LC/MS/MS analysis; assay type: ADME, organism-based, Canis lupus familiaris; details: in vivo
[8] = Prodrug conversion in minipig hepatocytes assessed as oxidation at 20 uM measured after 4 hrs; assay type: ADME, cell-based, Sus scrofa, Hepatocyte; details: pig
[9] = Drug uptake in Gottingen minipig systemic circulation at 2 mg/kg, po or 1 mg/kg, iv by LC/MS/MS analysis; assay type: ADME, organism-based, Sus scrofa; details: pig, in vivo
[10] = Prodrug conversion in minipig hepatocytes assessed as 2-(4-(benzo[d]thiazol-5-ylamino)-7-(2-hydroxyethoxy)quinazolin-6-ylsulfonyl)-2-methylpropan-1-ol formation at 20 uM measured after 4 hrs; assay type: ADME, cell-based, Sus scrofa, Hepatocyte; details: pig
[11] = Prodrug conversion in rat hepatocytes assessed as 2-(4-(benzo[d]thiazol-5-ylamino)-6-(tert-butylsulfonyl)quinazolin-7-yloxy)acetic acid formation at 20 uM measured after 4 hrs; assay type: ADME, cell-based, Hepatocyte
[12] = Prodrug conversion in Sprague-Dawley rat intestine assessed as 2-((4-(Benzo[d]thiazol-5-ylamino)-6-(tert-butylsulfonyl)quinazolin-7-yl)oxy)ethanol formation at 2 mg/kg, po or 0.5 mg/kg, iv measured at 15 to 120 mins post dose; assay type: ADME, organism-based; details: in vivo
[13] = Oral bioavailability in Sprague-Dawley rat assessed as 2-((4-(Benzo[d]thiazol-5-ylamino)-6-(tert-butylsulfonyl)quinazolin-7-yl)oxy)ethanol level at 2 mg/kg by LC/MS/MS analysis; assay type: ADME, organism-based; details: in vivo
Intestinal mucosa [14] = test: Antiinflammatory activity in crohn's disease patient derived inflamed intestinal mucosa assessed as reduction in IL6 production measured after overnight incubation by immunoassay; assay type: functional, tissue-based; details: Homo sapiens
[15] = biological target: T1, Nucleotide-binding oligomerization domain-containing protein 2 (Homo sapiens, UniProt Q9HC29); test: Inhibition of NOD2 in human monocytes assessed as reduction in MDP-induced TNFalpha production preincubated for 30 mins followed by MDP-stimulation and measured after 6 hrs by immunoassay; assay type: cell-based
Intestinal mucosa [16] = test: Antiinflammatory activity in crohn's disease patient derived inflamed intestinal mucosa assessed as reduction in IL1beta production measured after overnight incubation by immunoassay; assay type: functional, tissue-based; details: Homo sapiens
[17] = biological target: T1, Nucleotide-binding oligomerization domain-containing protein 2; test: Inhibition of human NOD2 expressed in HEK293 cells assessed as reduction in MDP-induced IL8 production measured after 22 hrs by HTRF fluorescence assay; assay type: cell-based
[18] = Volume of distribution at steady state in Gottingen minipig at 1 mg/kg, po or 0.4 mg/kg, iv by LC/MS/MS analysis; assay type: ADME, organism-based, Sus scrofa; details: pig, in vivo, read-out: Vdss
Toll-like receptor 9 = biological target: T2, Toll-like receptor 9 (Homo sapiens, UniProt Q9NR96); test: Inhibition of TLR9 in human monocytes assessed as reduction in CpG-ODN-induced IL8 production; assay type: cell-based
T2 sequence (Q9NR96 whole entry): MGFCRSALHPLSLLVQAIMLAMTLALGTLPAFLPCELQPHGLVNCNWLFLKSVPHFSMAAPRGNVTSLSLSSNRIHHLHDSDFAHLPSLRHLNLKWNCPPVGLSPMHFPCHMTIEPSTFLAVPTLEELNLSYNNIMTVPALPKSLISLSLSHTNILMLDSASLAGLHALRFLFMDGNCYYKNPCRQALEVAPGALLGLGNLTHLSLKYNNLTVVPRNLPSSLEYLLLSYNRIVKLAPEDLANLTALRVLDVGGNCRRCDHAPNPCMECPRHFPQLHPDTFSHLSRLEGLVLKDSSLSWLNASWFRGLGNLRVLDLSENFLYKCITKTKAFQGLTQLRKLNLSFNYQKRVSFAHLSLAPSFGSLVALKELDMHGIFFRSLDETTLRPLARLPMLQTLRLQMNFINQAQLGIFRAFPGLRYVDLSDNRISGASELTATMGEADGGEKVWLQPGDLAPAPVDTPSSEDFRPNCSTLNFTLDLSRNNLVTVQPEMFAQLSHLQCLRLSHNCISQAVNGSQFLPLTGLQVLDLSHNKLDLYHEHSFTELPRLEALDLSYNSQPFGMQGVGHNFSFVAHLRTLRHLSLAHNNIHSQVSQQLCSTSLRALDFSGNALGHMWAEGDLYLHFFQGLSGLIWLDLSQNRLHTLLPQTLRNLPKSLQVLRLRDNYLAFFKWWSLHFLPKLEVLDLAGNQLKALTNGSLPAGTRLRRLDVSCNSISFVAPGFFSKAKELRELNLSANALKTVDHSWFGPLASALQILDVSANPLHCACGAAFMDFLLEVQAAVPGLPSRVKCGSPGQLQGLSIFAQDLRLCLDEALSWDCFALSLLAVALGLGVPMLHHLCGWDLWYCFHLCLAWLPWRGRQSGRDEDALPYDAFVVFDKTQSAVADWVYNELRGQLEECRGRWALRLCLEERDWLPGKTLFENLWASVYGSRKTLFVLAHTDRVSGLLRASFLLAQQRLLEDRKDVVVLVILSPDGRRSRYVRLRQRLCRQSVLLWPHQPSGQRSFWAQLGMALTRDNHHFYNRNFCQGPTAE

Intestinal mucosa [19] = test: Antiinflammatory activity in ulcerative colitis patient derived inflamed intestinal mucosa assessed as reduction in IL1beta production measured after overnight incubation by immunoassay; assay type: functional, tissue-based; details: Homo sapiens
[20] = AUC in Sprague-Dawley rat at 2 mg/kg, po by LC/MS/MS analysis; assay type: ADME, organism-based; details: in vivo

T1 sequence (Q9HC29 whole entry, the tested form may be a part): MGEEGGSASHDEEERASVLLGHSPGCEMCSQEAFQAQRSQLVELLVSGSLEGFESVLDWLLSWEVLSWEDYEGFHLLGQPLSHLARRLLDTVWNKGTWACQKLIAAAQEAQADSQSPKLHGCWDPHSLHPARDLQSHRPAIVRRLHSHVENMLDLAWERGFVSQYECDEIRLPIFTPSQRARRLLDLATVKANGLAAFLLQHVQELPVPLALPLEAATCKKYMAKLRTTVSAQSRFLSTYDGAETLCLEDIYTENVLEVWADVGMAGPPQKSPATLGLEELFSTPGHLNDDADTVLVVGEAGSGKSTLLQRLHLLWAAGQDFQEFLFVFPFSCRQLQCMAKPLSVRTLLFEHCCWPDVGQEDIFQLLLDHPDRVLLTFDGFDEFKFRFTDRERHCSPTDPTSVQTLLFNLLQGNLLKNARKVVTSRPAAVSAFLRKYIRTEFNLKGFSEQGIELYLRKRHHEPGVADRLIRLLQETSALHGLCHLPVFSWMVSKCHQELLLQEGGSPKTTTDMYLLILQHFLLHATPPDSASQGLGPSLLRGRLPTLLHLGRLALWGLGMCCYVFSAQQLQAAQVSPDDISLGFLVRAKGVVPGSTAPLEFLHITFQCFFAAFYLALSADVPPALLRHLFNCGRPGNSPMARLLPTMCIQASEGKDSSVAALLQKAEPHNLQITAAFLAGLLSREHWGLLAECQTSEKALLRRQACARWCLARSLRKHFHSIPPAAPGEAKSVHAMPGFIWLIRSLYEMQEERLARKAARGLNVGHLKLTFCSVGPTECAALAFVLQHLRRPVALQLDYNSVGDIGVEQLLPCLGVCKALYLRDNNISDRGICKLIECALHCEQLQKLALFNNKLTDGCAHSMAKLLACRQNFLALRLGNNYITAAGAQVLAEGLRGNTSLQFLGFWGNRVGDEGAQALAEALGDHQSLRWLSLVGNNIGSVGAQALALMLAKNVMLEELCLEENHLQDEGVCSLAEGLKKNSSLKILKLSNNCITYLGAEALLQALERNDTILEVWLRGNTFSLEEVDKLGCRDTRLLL

Drug metabolism [1]: Metabolite_Detected
Drug metabolism [2]: Metabolite_Detected
half-life [3]: 25 min
AUC [5]: 1100 ng·h/mL
AUC [6]: 560 ng·h/mL
Drug uptake [7]: Not Active
Drug metabolism [8]: Metabolite_Detected
Drug uptake [9]: Not Active
Drug metabolism [10]: Metabolite_Detected
Drug metabolism [11]: Metabolite_Detected
Drug metabolism [12]: Metabolite_Detected
F [13]: 77%
Structure (SMILES): CC(C)(C)S(=O)(=O)c1cc2c(Nc3ccc4scnc4c3)ncnc2cc1OCCOP(=O)(O)O.[CaH2]
Activity [4]: Non-Toxic

IC50 (Intestinal mucosa [14]): 10 nM
inhibition [15]: Dose-dependent effect
IC50 (Intestinal mucosa [16]): 10 nM
IC50 [17]: 4 nM
inhibition [17]: Dose-dependent effect
Vd [18]: 1.8 L/kg
IC50 (Toll-like receptor 9): > 10000 nM
AUC [20]: 460 ng·h/mL
Structure (SMILES): CC(C)(C)S(=O)(=O)c1cc2c(Nc3ccc4scnc4c3)ncnc2cc1OCCO
Activity (Intestinal mucosa [14]): Dose-dependent effect
Activity (Intestinal mucosa [16]): Dose-dependent effect
Activity (Intestinal mucosa [19]): Dose-dependent effect
IC50 (Intestinal mucosa [19]): 10 nM
